According to patent US11725007B2, “Meta tyrosine derivatives as rho-kinase inhibitors” (Chiesi Farmaceutici S.p.A., priority 2017, dated 2023):

How the values were obtained:
Rho kinase 2 (ROCK2) = Rho kinase 2 (ROCK2) (Homo sapiens, UniProt O75116); assay: In vitro Rho kinase inhibitory activity assay (ADP-Glo), ROCK2; format: biochemical; conditions: 10 μM ATP, Myelin Basic Protein substrate, 25° C., Ki by Cheng-Prusoff
Experimental: (§1) The effectiveness of compounds of the invention to inhibit Rho kinase activity can be determined in a 10 μl assay containing 40 mM Tris pH7.5, 20 mM MgCl2 0.1 mg/ml BSA, 50 μM DTT and 2.5 μM peptide substrate (Myelin Basic Protein) using an ADP-Glo kit (Promega). Compounds were dissolved in DMSO such that the final concentration of DMSO was 1% in the assay. All reactions/incubations are performed at 25° C. Compound (2 ul) and either Rho kinase 1 or 2 (4 μl) were mixed and incubated for 30 mins. Reactions were initiated by addition of ATP (4 μl) such that the final concentration of ATP in the assay was 10 μM. After a 1 hour incubation 10 μl of ADP-Glo Reagent was added and after a further 45 minute incubation 20 ul of Kinase Detection Buffer was added and the mixture incubated for a further 30 minutes. The luminescent signal was measured on a luminometer. […] Compounds were tested in dose-response format and the inhibition of kinase activity was calculated at each concentration of compound. To determine the IC50 (concentration of compound required to inhibit 50% of the enzyme activity) data were fit to a plot of % inhibition vs Log10 compound concentration using a sigmoidal fit with a variable slope and fixing the maximum to 100% and the minimum to 0%. To determine the Ki values the Cheng-Prusoff equation was utilized (Ki=IC50/(1+[S]/Km)

Rho kinase 1 (ROCK1) = Rho kinase 1 (ROCK1) (Homo sapiens, UniProt Q13464); assay: In vitro Rho kinase inhibitory activity assay (ADP-Glo), ROCK1; format: biochemical; conditions: 10 μM ATP, Myelin Basic Protein substrate, 25° C., Ki by Cheng-Prusoff
Experimental: as §1

Sequence of Rho kinase 2 (ROCK2) (O75116 whole entry): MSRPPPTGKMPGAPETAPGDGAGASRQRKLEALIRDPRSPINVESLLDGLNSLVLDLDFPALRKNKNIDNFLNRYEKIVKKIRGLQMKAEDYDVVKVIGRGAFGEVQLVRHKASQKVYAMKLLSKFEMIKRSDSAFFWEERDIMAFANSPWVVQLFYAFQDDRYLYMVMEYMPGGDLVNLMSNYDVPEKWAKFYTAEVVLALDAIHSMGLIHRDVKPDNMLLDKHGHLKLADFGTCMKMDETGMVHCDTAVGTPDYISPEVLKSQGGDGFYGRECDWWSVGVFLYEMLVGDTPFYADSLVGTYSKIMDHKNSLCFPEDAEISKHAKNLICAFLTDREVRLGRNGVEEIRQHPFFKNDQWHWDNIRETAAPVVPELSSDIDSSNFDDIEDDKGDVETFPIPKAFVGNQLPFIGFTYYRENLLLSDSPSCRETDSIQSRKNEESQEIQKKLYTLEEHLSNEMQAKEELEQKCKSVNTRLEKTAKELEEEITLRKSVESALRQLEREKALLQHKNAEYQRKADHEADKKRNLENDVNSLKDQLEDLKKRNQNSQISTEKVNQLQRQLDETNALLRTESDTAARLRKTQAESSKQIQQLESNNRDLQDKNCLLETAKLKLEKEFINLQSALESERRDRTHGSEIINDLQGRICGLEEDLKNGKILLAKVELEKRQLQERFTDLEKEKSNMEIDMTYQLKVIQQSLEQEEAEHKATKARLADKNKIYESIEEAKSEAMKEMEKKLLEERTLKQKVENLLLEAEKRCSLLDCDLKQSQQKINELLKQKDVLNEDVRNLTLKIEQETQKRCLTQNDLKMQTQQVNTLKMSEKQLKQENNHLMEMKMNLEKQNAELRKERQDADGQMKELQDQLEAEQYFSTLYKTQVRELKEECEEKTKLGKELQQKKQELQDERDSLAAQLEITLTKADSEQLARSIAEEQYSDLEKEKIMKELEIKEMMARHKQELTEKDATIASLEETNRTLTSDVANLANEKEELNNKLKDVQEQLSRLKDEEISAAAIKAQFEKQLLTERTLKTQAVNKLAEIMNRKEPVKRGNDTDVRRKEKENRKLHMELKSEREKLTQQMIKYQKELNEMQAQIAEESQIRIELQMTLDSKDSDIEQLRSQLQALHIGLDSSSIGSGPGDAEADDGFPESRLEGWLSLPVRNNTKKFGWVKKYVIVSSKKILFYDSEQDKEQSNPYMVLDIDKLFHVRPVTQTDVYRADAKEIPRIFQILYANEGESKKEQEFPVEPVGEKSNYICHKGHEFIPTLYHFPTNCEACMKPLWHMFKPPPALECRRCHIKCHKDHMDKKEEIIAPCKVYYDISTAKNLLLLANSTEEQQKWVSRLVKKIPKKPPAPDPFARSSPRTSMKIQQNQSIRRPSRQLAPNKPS
Sequence of Rho kinase 1 (ROCK1) (Q13464 whole entry): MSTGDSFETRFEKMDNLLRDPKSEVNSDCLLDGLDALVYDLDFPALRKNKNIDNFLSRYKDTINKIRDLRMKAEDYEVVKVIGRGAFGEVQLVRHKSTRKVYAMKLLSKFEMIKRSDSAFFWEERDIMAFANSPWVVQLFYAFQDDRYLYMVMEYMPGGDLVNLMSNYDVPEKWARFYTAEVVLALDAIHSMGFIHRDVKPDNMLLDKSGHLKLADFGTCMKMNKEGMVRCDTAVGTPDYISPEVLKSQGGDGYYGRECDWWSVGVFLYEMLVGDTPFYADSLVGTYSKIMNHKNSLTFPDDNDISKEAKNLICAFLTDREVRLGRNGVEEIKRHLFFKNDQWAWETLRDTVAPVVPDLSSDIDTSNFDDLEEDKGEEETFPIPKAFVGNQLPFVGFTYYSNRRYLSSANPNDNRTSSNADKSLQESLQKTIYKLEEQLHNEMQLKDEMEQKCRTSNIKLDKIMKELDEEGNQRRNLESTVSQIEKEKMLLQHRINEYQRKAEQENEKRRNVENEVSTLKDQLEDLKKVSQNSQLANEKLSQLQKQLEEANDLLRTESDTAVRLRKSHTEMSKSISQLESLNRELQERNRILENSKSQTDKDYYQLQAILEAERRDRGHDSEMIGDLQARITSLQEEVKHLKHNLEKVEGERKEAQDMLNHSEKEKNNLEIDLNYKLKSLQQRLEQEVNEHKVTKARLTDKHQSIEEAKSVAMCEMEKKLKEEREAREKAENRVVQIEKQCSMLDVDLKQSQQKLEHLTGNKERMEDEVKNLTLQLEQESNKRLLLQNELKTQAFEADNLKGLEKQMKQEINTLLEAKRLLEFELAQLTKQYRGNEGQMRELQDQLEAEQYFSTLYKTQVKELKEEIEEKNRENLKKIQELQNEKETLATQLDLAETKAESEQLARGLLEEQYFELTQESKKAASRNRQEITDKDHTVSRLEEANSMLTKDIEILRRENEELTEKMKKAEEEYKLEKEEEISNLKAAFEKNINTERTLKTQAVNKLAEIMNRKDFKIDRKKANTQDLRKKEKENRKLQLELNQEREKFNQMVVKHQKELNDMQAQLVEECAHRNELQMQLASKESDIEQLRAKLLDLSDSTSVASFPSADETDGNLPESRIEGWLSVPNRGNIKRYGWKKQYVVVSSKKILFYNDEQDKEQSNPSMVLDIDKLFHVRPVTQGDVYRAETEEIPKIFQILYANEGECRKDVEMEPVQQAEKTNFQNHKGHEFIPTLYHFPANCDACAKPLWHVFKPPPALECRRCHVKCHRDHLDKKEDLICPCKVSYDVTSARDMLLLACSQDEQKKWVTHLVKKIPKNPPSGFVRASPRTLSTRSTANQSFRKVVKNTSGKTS

Ki (Rho kinase 2 (ROCK2))	Ki (Rho kinase 1 (ROCK1))	SMILES
5 to 50 nM	5 to 50 nM	Cc1c[nH]c2nccc(Oc3cccc(CC(N)C(=O)N4CCN(C)CC4)c3)c12 (centres unmarked) [Example 1, 2-Amino-3-(3-((3-methyl-1H-pyrrolo[2,3-b]pyridin-4-yl)oxy)phenyl)-1-(4-methylpiperazin-1-yl)propan-1-one]
5 to 50 nM	5 to 50 nM	COCCCNC(=O)C(N)Cc1cccc(Oc2ccnc3[nH]cc(C)c23)c1 (centres unmarked) [Example 2, 2-amino-N-(3-methoxypropyl)-3-(3-((3-methyl-1H-pyrrolo[2,3-b]pyridin-4-yl)oxy)phenyl)propanamide]
> 50 nM	> 50 nM	Cc1c[nH]c2nccc(Oc3cccc(CC(N)C(=O)NCCCN(C)C)c3)c12 (centres unmarked) [Example 3, 2-amino-N-(3-(dimethylamino)propyl)-3-(3-((3-methyl-1H-pyrrolo[2,3-b]pyridin-4-yl)oxy)phenyl)propanamide]
< 5 nM	< 5 nM	Cc1c[nH]c2nccc(Oc3cccc(CC(N)C(=O)NCCc4ccncc4)c3)c12 (centres unmarked) [Example 4, 2-amino-3-(3-((3-methyl-1H-pyrrolo[2,3-b]pyridin-4-yl)oxy)phenyl)-N-(2-(pyridin-4-yl)ethyl)propanamide]
5 to 50 nM	5 to 50 nM	Cc1c[nH]c2nccc(Oc3cccc(C(N)CC(=O)N4CCN(C)CC4)c3)c12 (centres unmarked) [Example 5, 3-amino-3-(3-((3-methyl-1H-pyrrolo[2,3-b]pyridin-4-yl)oxy)phenyl)-1-(4-methylpiperazin-1-yl)propan-1-one]
5 to 50 nM	5 to 50 nM	COCCCNC(=O)CC(N)c1cccc(Oc2ccnc3[nH]cc(C)c23)c1 (centres unmarked) [Example 6, 3-amino-N-(3-methoxypropyl)-3-(3-((3-methyl-1H-pyrrolo[2,3-b]pyridin-4-yl)oxy)phenyl)propanamide]
5 to 50 nM	5 to 50 nM	Cc1c[nH]c2nccc(Oc3cccc(C(N)CC(=O)NCCc4ccncc4)c3)c12 (centres unmarked) [Example 7, 3-amino-3-(3-((3-methyl-1H-pyrrolo[2,3-b]pyridin-4-yl)oxy)phenyl)-N-(2-(pyridin-4-yl)ethyl)propanamide]
> 50 nM	> 50 nM	Cc1c[nH]c2nccc(Oc3cccc(C(N)CC(=O)NCCCN(C)C)c3)c12 (centres unmarked) [Example 8, 3-amino-N-(3-(dimethylamino)propyl)-3-(3-((3-methyl-1H-pyrrolo[2,3-b]pyridin-4-yl)oxy)phenyl)propanamide]
> 50 nM	> 50 nM	Cc1c[nH]c2nccc(Oc3cccc(CC(CN)C(=O)N4CCN(C)CC4)c3)c12 (centres unmarked) [Example 9, 3-amino-2-(3-((3-methyl-1H-pyrrolo[2,3-b]pyridin-4-yl)oxy)benzyl)-1-(4-methylpiperazin-1-yl)propan-1-one]
5 to 50 nM	5 to 50 nM	COCCCNC(=O)C(CN)Cc1cccc(Oc2ccnc3[nH]cc(C)c23)c1 (centres unmarked) [Example 10, 3-amino-N-(3-methoxypropyl)-2-(3-((3-methyl-1H-pyrrolo[2,3-b]pyridin-4-yl)oxy)benzyl)propanamide]
5 to 50 nM	5 to 50 nM	Cc1c[nH]c2nccc(Oc3cccc(CC(CN)C(=O)NCCc4ccncc4)c3)c12 (centres unmarked) [Example 11, 3-amino-2-(3-((3-methyl-1H-pyrrolo[2,3-b]pyridin-4-yl)oxy)benzyl)-N-(2-(pyridin-4-yl)ethyl)propanamide]
> 50 nM	> 50 nM	Cc1c[nH]c2nccc(Oc3cccc(CC(CN)C(=O)NCCCN(C)C)c3)c12 (centres unmarked) [Example 12, 3-amino-N-(3-(dimethylamino)propyl)-2-(3-((3-methyl-1H-pyrrolo[2,3-b]pyridin-4-yl)oxy)benzyl)propanamide]
5 to 50 nM	5 to 50 nM	Cc1c[nH]c2nccc(Oc3cccc(C(CN)CC(=O)NCCc4ccncc4)c3)c12 (centres unmarked) [Example 13, 4-Amino-3-(3-((3-methyl-1H-pyrrolo[2,3-b]pyridin-4-yl)oxy)phenyl)-N-(2-(pyridin-4-yl)ethyl)butanamide]
5 to 50 nM	5 to 50 nM	COCCCNC(=O)CC(CN)c1cccc(Oc2ccnc3[nH]cc(C)c23)c1 (centres unmarked) [Example 14, 4-amino-N-(3-methoxypropyl)-3-(3-((3-methyl-1H-pyrrolo[2,3-b]pyridin-4-yl)oxy)phenyl)butanamide]
> 50 nM	> 50 nM	Cc1c[nH]c2nccc(Oc3cccc(C(CN)CC(=O)NCCCN(C)C)c3)c12 (centres unmarked) [Example 15, 4-amino-N-(3-(dimethylamino)propyl)-3-(3-((3-methyl-1H-pyrrolo[2,3-b]pyridin-4-yl)oxy)phenyl)butanamide]
5 to 50 nM	5 to 50 nM	Cc1c[nH]c2nccc(Oc3cccc(C(CN)CC(=O)N4CCN(C)CC4)c3)c12 (centres unmarked) [Example 16, 4-amino-3-(3-((3-methyl-1H-pyrrolo[2,3-b]pyridin-4-yl)oxy)phenyl)-1-(4-methylpiperazin-1-yl)butan-1-one]
